In paper PMC5696480, “Azole sensitivity in Leptosphaeria pathogens of oilseed rape: the role of lanosterol 14α-demethylase” (Scientific Reports, 2017):

What was measured:
Assay in all cases: growth inhibition of complemented yeast YUG37::LbCYP51B, absorbance at […] nm
Format in all cases: cell-based, Plenodomus biglobosus (Leptosphaeria biglobosa)
Conditions in all cases: whole-cell growth; SD GAL + RAF with doxycycline (native CYP51 repressed), 30 °C, 6 days; SD of two biological replicates
[1] = test system: T1, LbCYP51B
T1 construct: gene CYP51B; protein identical in all 8 isolates; gene 1642 bp with one 58 bp intron

[2] = test system: T1, LbCYP51B; remark: listed apart in the source
[3] = test system: T1, LbCYP51B; remark: listed apart in the source

C[Si](Cn1cncn1)(c1ccc(F)cc1)c1ccc(F)cc1 [flusilazole]
Flusilazole [1]: 0.032 (0.0056) µg ml^−1

OC(Cc1ccccc1Cl)(Cn1cncn1)C1(Cl)CC1 (stereo not drawn) [prothioconazole-desthio]
Prothioconazole-desthio [2]: 0.0004 (0.0002) µg ml^−1

CC(C)(C)C(O)(CCc1ccc(Cl)cc1)Cn1cncn1 (stereo not drawn) [tebuconazole]
Tebuconazole [3]: 0.0062 (0.0005) µg ml^−1
